What was measured:
[1] = Stability in the presence of chlorine demand (0.1× nutrient broth), total chlorine by Hach DPD; assay type: physicochemical; details: 5 ppm chlorine
Method: This can be seen in Table 4 below. 20 mL aliquots of a 0.1× nutrient broth were used and the active species added such that the initial concentration of each was equivalent to 5 ppm chlorine as measured by the Hach. To prepare the nutrient broth Difco Nutrient Broth (8 grams) was dissolved in 1 L of deionized water, and subsequently diluted to 0.1× of the initial concentration prior to being autoclaved at 121° C. for 15 minutes. 100 mL solutions of each of the actives were made, and the concentration was measured using standard Hach test procedures on a BetzDearborn DR 2010 Spectrophotometer. At each time point a 1:10 dilution of the solution in DI water was made and placed in the spectrophotometer cell. Hach Permachem DPD Total Chlorine Reagent was added and the cell was placed into the spectrophotometer. The ppm of Cl2 was measured at 0, 1, 3, 6, 24, and 48 hours. A fresh dilution was made at each time point, if necessary, and the bottles of solution were placed in a shaking incubator at 37° C. in between runs. Dimethyl monochlorourea is notated as DMCU. Bis-hydroxymethyl chlorourea is BHMCU.

[2] = as above; assay type: physicochemical; details: 72 h, 5 ppm chlorine
Pseudomonas aeruginosa = experiment: Log reduction in populations of Pseudomonas aeruginosa (Example 9); assay type: cell-based; details: P. aeruginosa, 0.3 ppm, average of two
Method: (§1) N-chloro-N,N′-bishydroxymethylurea can be synthesized in the same manner as N-chloro-N,N′-dimethylurea. The bishydroxyurea (1.0 g, 8.33 mmol) was added to methanol (60 mL) in a 250 mL round bottom flask equipped with a magnetic stir bar without cooling. Another aliquot of methanol (20 mL) was added to a small vial. T-butyl hypochlorite (0.75 mL, 6.66 mmol) was diluted in the vial with methanol, and this solution was subsequently added to the urea solution over a period of less than five minutes. The combined solution was stirred for up to another two hours. The solvent was removed in vacuo, resulting in a colorless and transparent oil that solidified upon prolonged standing. The solid was characterized by ^1H NMR which indicated it was 20-30% N-chloro-N,N′-bishydroxymethylurea.

Staphylococcus warneri = experiment: Log reduction in populations of Staphylococcus warneri (Example 9); assay type: cell-based; details: S. warneri, 1.5 ppm, average of two
Method: as §1

O=C(NCO)N(Cl)CO [BHMCU, N-chloro-N,N′-bishydroxymethylurea]
Stability: total chlorine remaining relative to initial ([1]; 0 h): 100% | Stability: total chlorine remaining relative to initial ([1]; 1 h): 70% | Stability: total chlorine remaining relative to initial ([1]; 3 h): 49% | Stability: total chlorine remaining relative to initial ([1]; 6 h): 38% | Stability: total chlorine remaining relative to initial [2]: 3% | Log Reduction (Pseudomonas aeruginosa; 1 hr exposure): 3.63 | Log Reduction (Pseudomonas aeruginosa; 2 hr exposure): 6.98 | Log Reduction (Staphylococcus warneri; 1 hr exposure): 6.37 | Log Reduction (Staphylococcus warneri; 2 hr exposure): 6.52

Source: US8420012B2, “Use of monochlorourea to treat industrial waters” (Hercules Incorporated, priority 2009, dated 2013)
